Measured values published in ChEMBL document CHEMBL6103552, “Identification of peptide-based hepatitis B virus capsid inhibitors based on the viral core protein” (Bioorg Med Chem Lett, 2025).
The source made the active and inactive calls. The rule behind the calls is not given here. Residues, ends and D or L forms follow the SMILES beside them.

What follows are molecules tested against Core antigen (Hepatitis B virus) (UniProt Q03732) (assay: Inhibition of Hepatitis B virus capsid formation at 100 uM treated during cell-free wild type HBV Cp synthesis using wheat germ lysates and HBV Cp RNA by Native capsid assay based western blot analysis).
Format: subcellular

Sequence of Core antigen (Hepatitis B virus) (Q03732 as listed by the source): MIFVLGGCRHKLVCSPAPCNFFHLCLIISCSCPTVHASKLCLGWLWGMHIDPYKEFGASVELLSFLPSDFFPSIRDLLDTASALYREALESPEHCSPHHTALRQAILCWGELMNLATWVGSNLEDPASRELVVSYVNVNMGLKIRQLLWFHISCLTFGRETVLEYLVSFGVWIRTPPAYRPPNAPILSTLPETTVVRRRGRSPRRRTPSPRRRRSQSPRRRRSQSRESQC

| SMILES | inhibition |
| --- | --- |
| CC(=O)N[C@@H](CO)C(=O)N[C@H](C(=O)N[C@@H](CC(C)C)C(=O)N1CCC[C@H]1C(=O)N[C@@H](CCC(=O)O)C(=O)N[C@H](C(=O)N[C@H](C(=O)N[C@H](C(=O)N[C@H](C(=O)N[C@@H](CCCNC(=N)N)C(=O)N[C@@H](CCCNC(=N)N)C(=O)N[C@@H](CCCNC(=N)N)C(=O)NCC(=O)N[C@@H](CCCNC(=N)N)C(=O)N[C@@H](CO)C(N)=O)C(C)C)C(C)C)[C@@H](C)O)[C@@H](C)O)[C@@H](C)O | inactive |
| CC[C@H](C)[C@H](NC(=O)[C@@H]1CCCN1C(=O)[C@H](C)NC(=O)[C@H](CC(N)=O)NC(C)=O)C(=O)N[C@@H](CC(C)C)C(=O)N[C@@H](CO)C(=O)N[C@H](C(=O)N[C@@H](CC(C)C)C(=O)N1CCC[C@H]1C(=O)N[C@@H](CCC(=O)O)C(=O)N[C@H](C(=O)N[C@H](C(=O)N[C@H](C(=O)N[C@H](C(=O)N[C@@H](CCCNC(=N)N)C(N)=O)C(C)C)C(C)C)[C@@H](C)O)[C@@H](C)O)[C@@H](C)O | inactive |
| CC(=O)N[C@@H](C)C(=O)N[C@@H](CC(C)C)C(=O)N[C@@H](CCC(=O)O)C(=O)N[C@@H](CO)C(=O)N1CCC[C@H]1C(=O)N[C@@H](CCC(=O)O)C(=O)N[C@@H](Cc1c[nH]cn1)C(=O)N[C@@H](CS)C(=O)N[C@@H](CO)C(=O)N1CCC[C@H]1C(=O)N[C@@H](Cc1c[nH]cn1)C(=O)N[C@@H](Cc1c[nH]cn1)C(=O)N[C@H](C(=O)N[C@@H](C)C(=O)N[C@@H](CC(C)C)C(N)=O)[C@@H](C)O (Ac-ALESPEHCSPHHTAL-NH2) | inactive |
| CC(=O)N[C@@H](C)C(=O)N[C@@H](CC(C)C)C(=O)N[C@@H](Cc1ccc(O)cc1)C(=O)N[C@@H](CCCNC(=N)N)C(=O)N[C@@H](CCC(=O)O)C(=O)N[C@@H](C)C(=O)N[C@@H](CC(C)C)C(=O)N[C@@H](CCC(=O)O)C(=O)N[C@@H](CO)C(=O)N1CCC[C@H]1C(=O)N[C@@H](CCC(=O)O)C(=O)N[C@@H](Cc1c[nH]cn1)C(=O)N[C@@H](CS)C(=O)N[C@@H](CO)C(=O)N1CCC[C@H]1C(N)=O (Ac-ALYREALESPEHCSP-NH2) | inactive |
| CC[C@H](C)[C@H](NC(=O)[C@@H]1CCCN1C(=O)[C@H](C)NC(=O)[C@H](CC(N)=O)NC(=O)[C@@H]1CCCN1C(=O)[C@@H]1CCCN1C(=O)[C@H](CCCNC(=N)N)NC(=O)[C@H](Cc1ccc(O)cc1)NC(=O)[C@H](C)NC(C)=O)C(=O)N[C@@H](CC(C)C)C(=O)N[C@@H](CO)C(=O)N[C@H](C(=O)N[C@@H](CC(C)C)C(=O)N1CCC[C@H]1C(=O)N[C@@H](CCC(=O)O)C(N)=O)[C@@H](C)O (Ac-AYRPPNAPILSTLPE-NH2) | inactive |
| CC[C@H](C)[C@H](NC(=O)[C@H](C)NC(=O)[C@H](CCC(N)=O)NC(=O)[C@@H]1CCCN1C(=O)[C@H](CC(C)C)NC(=O)[C@H](C)NC(=O)[C@@H](NC(=O)[C@H](Cc1c[nH]cn1)NC(=O)[C@H](Cc1c[nH]cn1)NC(=O)[C@@H]1CCCN1C(=O)[C@H](CO)NC(=O)[C@H](CS)NC(=O)[C@H](Cc1c[nH]cn1)NC(=O)[C@H](CCC(=O)O)NC(C)=O)[C@@H](C)O)C(=O)N[C@@H](CC(C)C)C(N)=O (Ac-EHCSPHHTALPQAIL-NH2) | inactive |
| CC(=O)NCC(=O)N[C@@H](CCCNC(=N)N)C(=O)N[C@@H](CCC(=O)O)C(=O)N[C@H](C(=O)N[C@H](C(=O)N[C@@H](CC(C)C)C(=O)N[C@@H](CCC(=O)O)C(=O)N[C@@H](Cc1ccc(O)cc1)C(=O)N[C@@H](CC(C)C)C(=O)N[C@H](C(=O)N[C@@H](CO)C(=O)N[C@@H](Cc1ccccc1)C(=O)NCC(=O)N[C@H](C(=O)N[C@@H](Cc1c[nH]c2ccccc12)C(N)=O)C(C)C)C(C)C)C(C)C)[C@@H](C)O (Ac-GRETVLEYLVSFGVW-NH2) | inactive |
| CC[C@H](C)[C@H](NC(=O)[C@H](C)NC(=O)[C@H](CCC(N)=O)NC(=O)[C@@H]1CCCN1C(=O)[C@H](CC(C)C)NC(=O)[C@H](C)NC(=O)[C@@H](NC(=O)[C@H](Cc1c[nH]cn1)NC(=O)[C@H](Cc1c[nH]cn1)NC(C)=O)[C@@H](C)O)C(=O)N[C@@H](CC(C)C)C(=O)N[C@@H](CS)C(=O)N[C@@H](Cc1c[nH]c2ccccc12)C(=O)NCC(=O)N[C@@H](CCC(=O)O)C(=O)N[C@@H](CC(C)C)C(N)=O (Ac-HHTALPQAILCWGEL-NH2) | inactive |
| CC[C@H](C)[C@H](NC(C)=O)C(=O)N[C@@H](CCCNC(=N)N)C(=O)N[C@H](C(=O)N1CCC[C@H]1C(=O)N1CCC[C@H]1C(=O)N[C@@H](C)C(=O)N[C@@H](Cc1ccc(O)cc1)C(=O)N[C@@H](CCCNC(=N)N)C(=O)N1CCC[C@H]1C(=O)N1CCC[C@H]1C(=O)N[C@@H](CC(N)=O)C(=O)N[C@@H](C)C(=O)N1CCC[C@H]1C(=O)N[C@H](C(=O)N[C@@H](CC(C)C)C(N)=O)[C@@H](C)CC)[C@@H](C)O (Ac-IRTPPAYRPPNAPIL-NH2) | inactive |
| CC(=O)N[C@@H](CC(C)C)C(=O)N[C@@H](CC(=O)O)C(=O)N[C@H](C(=O)N[C@@H](C)C(=O)N[C@@H](CO)C(=O)N[C@@H](C)C(=O)N[C@@H](CC(C)C)C(=O)N[C@@H](Cc1ccc(O)cc1)C(=O)N[C@@H](CCCNC(=N)N)C(=O)N[C@@H](CCC(=O)O)C(=O)N[C@@H](C)C(=O)N[C@@H](CC(C)C)C(=O)N[C@@H](CCC(=O)O)C(=O)N[C@@H](CO)C(=O)N1CCC[C@H]1C(N)=O)[C@@H](C)O (Ac-LDTASALYREALESP-NH2) | inactive |
| CC[C@H](C)[C@H](NC(=O)[C@H](Cc1c[nH]c2ccccc12)NC(=O)[C@@H](NC(=O)CNC(=O)[C@H](Cc1ccccc1)NC(=O)[C@H](CO)NC(=O)[C@@H](NC(=O)[C@H](CC(C)C)NC(=O)[C@H](Cc1ccc(O)cc1)NC(=O)[C@H](CCC(=O)O)NC(=O)[C@H](CC(C)C)NC(C)=O)C(C)C)C(C)C)C(=O)N[C@@H](CCCNC(=N)N)C(=O)N[C@H](C(=O)N1CCC[C@H]1C(=O)N1CCC[C@H]1C(N)=O)[C@@H](C)O (Ac-LEYLVSFGVWIRTPP-NH2) | inactive |
| CC[C@H](C)[C@H](NC(=O)[C@H](Cc1c[nH]cn1)NC(=O)[C@H](Cc1ccccc1)NC(=O)[C@H](Cc1c[nH]c2ccccc12)NC(=O)[C@H](CC(C)C)NC(C)=O)C(=O)N[C@@H](CO)C(=O)N[C@@H](CS)C(=O)N[C@@H](CC(C)C)C(=O)N[C@H](C(=O)N[C@@H](Cc1ccccc1)C(=O)NCC(=O)N[C@@H](CCCNC(=N)N)C(=O)N[C@@H](CCC(=O)O)C(=O)N[C@H](C(=O)N[C@H](C(N)=O)C(C)C)[C@@H](C)O)[C@@H](C)O (Ac-LWFHISCLTFGRETV-NH2) | inactive |
| CC(=O)N1CCC[C@H]1C(=O)N[C@@H](CCCNC(=N)N)C(=O)N[C@@H](CCCNC(=N)N)C(=O)N[C@@H](CCCNC(=N)N)C(=O)N[C@@H](CCCNC(=N)N)C(=O)N[C@@H](CO)C(=O)N[C@@H](CCC(N)=O)C(=O)N[C@@H](CO)C(=O)N[C@@H](CCCNC(=N)N)C(=O)N[C@@H](CCC(=O)O)C(=O)N[C@@H](CO)C(=O)N[C@@H](CCC(N)=O)C(=O)N[C@@H](CS)C(N)=O (Ac-PRRRRSQSRESQC-NH2) | inactive |
| CC(=O)N1CCC[C@H]1C(=O)N[C@@H](CCCNC(=N)N)C(=O)N[C@@H](CCCNC(=N)N)C(=O)N[C@@H](CCCNC(=N)N)C(=O)N[C@H](C(=O)N1CCC[C@H]1C(=O)N[C@@H](CO)C(=O)N1CCC[C@H]1C(=O)N[C@@H](CCCNC(=N)N)C(=O)N[C@@H](CCCNC(=N)N)C(=O)N[C@@H](CCCNC(=N)N)C(=O)N[C@@H](CCCNC(=N)N)C(=O)N[C@@H](CO)C(=O)N[C@@H](CCC(N)=O)C(=O)N[C@@H](CO)C(N)=O)[C@@H](C)O (Ac-PRRRTPSPRRRRSQS-NH2) | inactive |
| CC(=O)N1CCC[C@H]1C(=O)N[C@@H](CO)C(=O)N1CCC[C@H]1C(=O)N[C@@H](CCCNC(=N)N)C(=O)N[C@@H](CCCNC(=N)N)C(=O)N[C@@H](CCCNC(=N)N)C(=O)N[C@@H](CCCNC(=N)N)C(=O)N[C@@H](CO)C(=O)N[C@@H](CCC(N)=O)C(=O)N[C@@H](CO)C(=O)N1CCC[C@H]1C(=O)N[C@@H](CCCNC(=N)N)C(=O)N[C@@H](CCCNC(=N)N)C(=O)N[C@@H](CCCNC(=N)N)C(=O)N[C@@H](CCCNC(=N)N)C(N)=O (Ac-PSPRRRRSQSPRRRR-NH2) | inactive |
| CC(=O)N[C@@H](CCC(N)=O)C(=O)N[C@@H](CO)C(=O)N1CCC[C@H]1C(=O)N[C@@H](CCCNC(=N)N)C(=O)N[C@@H](CCCNC(=N)N)C(=O)N[C@@H](CCCNC(=N)N)C(=O)N[C@@H](CCCNC(=N)N)C(=O)N[C@@H](CO)C(=O)N[C@@H](CCC(N)=O)C(=O)N[C@@H](CO)C(=O)N[C@@H](CCCNC(=N)N)C(=O)N[C@@H](CCC(=O)O)C(=O)N[C@@H](CO)C(=O)N[C@@H](CCC(N)=O)C(=O)N[C@@H](CS)C(N)=O (Ac-QSPRRRRSQSRESQC-NH2) | inactive |
| CC(=O)N[C@@H](CCCNC(=N)N)C(=O)N[C@@H](CCCNC(=N)N)C(=O)NCC(=O)N[C@@H](CCCNC(=N)N)C(=O)N[C@@H](CO)C(=O)N1CCC[C@H]1C(=O)N[C@@H](CCCNC(=N)N)C(=O)N[C@@H](CCCNC(=N)N)C(=O)N[C@@H](CCCNC(=N)N)C(=O)N[C@H](C(=O)N1CCC[C@H]1C(=O)N[C@@H](CO)C(=O)N1CCC[C@H]1C(=O)N[C@@H](CCCNC(=N)N)C(=O)N[C@@H](CCCNC(=N)N)C(N)=O)[C@@H](C)O (Ac-RRGRSPRRRTPSPRR-NH2) | inactive |
| CC(=O)N[C@@H](CCCNC(=N)N)C(=O)N[C@@H](CCCNC(=N)N)C(=O)N[C@@H](CO)C(=O)N[C@@H](CCC(N)=O)C(=O)N[C@@H](CO)C(=O)N1CCC[C@H]1C(=O)N[C@@H](CCCNC(=N)N)C(=O)N[C@@H](CCCNC(=N)N)C(=O)N[C@@H](CCCNC(=N)N)C(=O)N[C@@H](CCCNC(=N)N)C(=O)N[C@@H](CO)C(=O)N[C@@H](CCC(N)=O)C(=O)N[C@@H](CO)C(=O)N[C@@H](CCCNC(=N)N)C(=O)N[C@@H](CCC(=O)O)C(N)=O (Ac-RRSQSPRRRRSQSRE-NH2) | inactive |
| CC(=O)N[C@@H](CO)C(=O)N[C@@H](CS)C(=O)N[C@@H](CC(C)C)C(=O)N[C@H](C(=O)N[C@@H](Cc1ccccc1)C(=O)NCC(=O)N[C@@H](CCCNC(=N)N)C(=O)N[C@@H](CCC(=O)O)C(=O)N[C@H](C(=O)N[C@H](C(=O)N[C@@H](CC(C)C)C(=O)N[C@@H](CCC(=O)O)C(=O)N[C@@H](Cc1ccc(O)cc1)C(=O)N[C@@H](CC(C)C)C(=O)N[C@H](C(N)=O)C(C)C)C(C)C)[C@@H](C)O)[C@@H](C)O (Ac-SCLTFGRETVLEYLV-NH2) | inactive |
